Assays:
Type in all cases: in vivo
Myzus persicae = Myzus persicae - spray test (MYZUPE); conditions: mortality
Experimental: (§1) For all examples the efficiencies of the compositions comprising at least one BCA and at least one specific insecticide has been determined by the “Colby-formula”: The expected efficacy of a given combination of two compounds is calculated as follows (see Colby, S. R., “Calculating Synergistic and antagonistic Responses of Herbicide Combinations”, Weeds 15, pp. 20-22, 1967): • If • X is the efficacy expressed in % mortality of the untreated control for test compound A at a concentration of m ppm respectively m g/ha, • Y is the efficacy expressed in % mortality of the untreated control for test compound B at a concentration of n ppm respectively n g/ha, • E is the efficacy expressed in % mortality of the untreated control using the mixture of A and B at m and n ppm respectively m and n g/ha, then is E=X+Y−(X×Y/100)
(§2) If the observed insecticidal efficacy of the combination is higher than the one calculated as “E”, then the combination of the two compounds is more than additive, i.e., there is a synergistic effect.
Myzus persicae—Spray Test (MYZUPE) […]
(§3) After the specified period of time, mortality in % is determined. […] The mortality values determined thus are recalculated using the Colby-formula (see above).

Tetranychus urticae = Tetranychus urticae - spray test, OP-resistant; conditions: mortality, French beans sprayed
Experimental: as §1, §2
Tetranychus urticase—Spray Test, OP-resistant […]
as §3

Phaedon cochleariae = Phaedon cochleariae - spray test; conditions: mortality of larvae, 100 g ai/ha
Experimental: as §1, §2
Phaedan Cochleariae—Spray Test […]
as §3

Compound | Efficacy in % after 1^d (Myzus persicae; Chinese cabbage leaf-disks sprayed, 1 d, 4 g/ha) [%] | Efficacy in % after 6^d (Tetranychus urticae; 6 d, 20 g ai/ha) [%] | Efficacy in % after 6^d (Myzus persicae; 6 d, 100 g/ha) [%] | Efficacy in % after 2^d (Tetranychus urticae; 2 d, 100 g ai/ha) [%] | Efficacy in % after 6^d (Phaedon cochleariae) [%]
O=C1C=C(N(Cc2ccc(Cl)nc2)CC(F)F)CO1 [Flupyradifurone (I262), Flupyradifurone, reference compound] | 0 | 0 | – | – | –
Cc1cc(F)c(-n2nc(C(F)(F)F)nc2N)cc1[S+]([O-])CC(F)(F)F (centres unmarked) [I277, 1-{2-fluoro-4-methyl-5-[(2,2,2-trifluorethyl)sulfinyl]phenyl}-3-(trifluoromethyl)-1H-1,2,4-triazol-5-amine] | – | – | 0 | 0 | 0

From patent publication US9801387B2, “Compositions comprising a biological control agent and an insecticide” (Bayer CropScience AG, priority 2012, dated 2017)
